Test results reported in US6982348B2, “Aminoethanol derivatives” (Takeda Pharmaceutical Company Limited, priority 2001, dated 2006).

For `NC(=O)c1ccc([C@H](O)[C@@H](Cc2cccc(OC(F)(F)C(F)F)c2)NC(=O)c2cccc3c2C=CCCC3)cc1` (racemic) [Example 311, N-[(1RS,2SR)-2-[4-(aminocarbonyl)phenyl]-2-hydroxy-1-[3-(1,1,2,2-tetrafluoroethoxy)benzyl]ethyl]-6,7-dihydro-5H-benzo[a]cycloheptene-1-carboxamide], the melting point was 197 to 199 °C.
With `CN(C)C(=O)c1ccc([C@H](O)[C@@H](Cc2cccc(OC(F)(F)C(F)F)c2)NC(=O)c2cccc3c2C=CCCC3)cc1` (racemic) [Example 312, N-[(1RS,2SR)-2-[4-[(dimethylamino)carbonyl]phenyl]-2-hydroxy-1-[3-(1,1,2,2-tetrafluoroethoxy)benzyl]ethyl]-6,7-dihydro-5H-benzo[a]cycloheptene-1-carboxamide] the melting point was 165 to 166 °C.
In the case of `O=C(N[C@H](Cc1cccc(OC(F)(F)C(F)F)c1)[C@@H](O)c1ccc(C(=O)N2CCCCC2)cc1)c1cccc2c1C=CCCC2` (racemic) [Example 313, N-[(1RS,2SR)-2-hydroxy-2-[4-(piperidinocarbonyl)phenyl]-1-[3-(1,1,2,2-tetrafluoroethoxy)benzyl]ethyl]-6,7-dihydro-5H-benzo[a]cycloheptene-1-carboxamide], the melting point is reported as 176 to 177 °C.
With `O=C(Nc1ccccc1)c1ccc([C@H](O)[C@@H](Cc2cccc(OC(F)(F)C(F)F)c2)NC(=O)c2cccc3c2C=CCCC3)cc1` (racemic) [Example 314, N-[(1RS,2SR)-2-[4-(anilinocarbonyl)phenyl]-2-hydroxy-1-[3-(1,1,2,2-tetrafluoroethoxy)benzyl]ethyl]-6,7-dihydro-5H-benzo[a]cycloheptene-1-carboxamide] the melting point was 205 to 206 °C.
In the case of `CC(C)NC(=O)c1ccc([C@H](O)[C@@H](Cc2cccc(OC(F)(F)C(F)F)c2)NC(=O)c2cccc3c2C=CCCC3)cc1` (racemic) [Example 315, N-[(1RS,2SR)-2-hydroxy-2-[4-[(isopropylamino)carbonyl]phenyl]-1-[3-(1,1,2,2-tetrafluoroethoxy)benzyl]ethyl]-6,7-dihydro-5H-benzo[a]cycloheptene-1-carboxamide], the melting point is reported as 215 to 217 °C.
`O=C(NCc1ccccc1)c1ccc([C@H](O)[C@@H](Cc2cccc(OC(F)(F)C(F)F)c2)NC(=O)c2cccc3c2C=CCCC3)cc1` (racemic) [Example 316, N-[(1RS,2SR)-2-[4-[(benzylamino)carbonyl]phenyl]-2-hydroxy-1-[3-(1,1,2,2-tetrafluoroethoxy)benzyl]ethyl]-6,7-dihydro-5H-benzo[a]cycloheptene-1-carboxamide] showed a melting point of 216 to 217 °C.
`CCCCNC(=O)c1ccc([C@H](O)[C@@H](Cc2cccc(OC(F)(F)C(F)F)c2)NC(=O)c2cccc3c2C=CCCC3)cc1` (racemic) [Example 317, N-[(1RS,2SR)-2-[4-[(butylamino)carbonyl]phenyl]-2-hydroxy-1-[3-(1,1,2,2-tetrafluoroethoxy)benzyl]ethyl]-6,7-dihydro-5H-benzo[a]cycloheptene-1-carboxamide] showed a melting point of 207 to 208 °C.
In the case of `Cc1ccc(C(=O)N[C@H](Cc2cccc(OC(F)(F)C(F)F)c2)[C@@H](O)c2ccc(F)cc2)c2c1CCCC=C2` (racemic) [Example 318, N-[(1RS,2SR)-2-(4-fluorophenyl)-2-hydroxy-1-[3-(1,1,2,2-tetrafluoroethoxy)benzyl]ethyl]-4-methyl-6,7-dihydro-5H-benzo[a]cycloheptene-1-carboxamide], the melting point is reported as 177 to 178 °C.
For `CC(C)(C)OC(=O)N[C@H](Cc1cc(OC(F)(F)C(F)F)no1)[C@@H](O)c1ccc(F)cc1` (racemic) [Example 319, tert-butyl N-[(1RS,2SR)-2-(4-fluorophenyl)-2-hydroxy-1-[[3-(1,1,2,2-tetrafluoroethoxy)isooxazol-5-yl]methyl]ethyl]carbamate], the melting point was 114 to 115 °C.
`O=C(N[C@H](Cc1cc(OC(F)(F)C(F)F)no1)[C@@H](O)c1ccc(F)cc1)c1cccc2c1C=CCCC2` (racemic) [Example 320, N-[(1RS,2SR)-2-(4-fluorophenyl)-2-hydroxy-1-[[3-(1,1,2,2-tetrafluoroethoxy)isoxazol-5-yl]methyl]ethyl]-6,7-dihydro-5H-benzo[a]cycloheptene-1-carboxamide] showed a melting point of 127 to 128 °C.
`CC(C)(C)OC(=O)Nc1ccc([C@H](O)[C@@H](Cc2cccc(OC(F)(F)C(F)F)c2)NC(=O)c2cccc3c2C=CCCC3)cc1` (racemic) [Example 321, N-[(1RS,2SR)-2-[4-[(tert-butoxycarbonyl)amino]phenyl]-2-hydroxy-1-[3-(1,1,2,2-tetrafluoroethoxy)benzyl]ethyl]-6,7-dihydro-5H-benzo[a]cycloheptene-1-carboxamide] gave a melting point of 153 to 156 °C.
For `Nc1ccc([C@H](O)[C@@H](Cc2cccc(OC(F)(F)C(F)F)c2)NC(=O)c2cccc3c2C=CCCC3)cc1` (racemic) [Example 322, N-[(1RS,2SR)-2-(4-aminophenyl)-2-hydroxy-1-[3-(1,1,2,2-tetrafluoroethoxy)benzyl]ethyl]-6,7-dihydro-5H-benzo[a]cycloheptene-1-carboxamide], the melting point was 153 to 155 °C.
`CC(C)c1cccc(C[C@@H](NC(=O)c2cccc3c2C=CCCC3)[C@@H](O)c2ccc(F)cc2)c1` (racemic) [Example 323, N-[(1RS,2SR)-2-(4-fluorophenyl)-2-hydroxy-1-(3-isopropylbenzyl)ethyl]-6,7-dihydro-5H-benzo[a]cycloheptene-1-carboxamide] showed a melting point of 165 to 167 °C.
For `CC(C)c1cccc(C[C@@H](NC(=O)c2ccc(F)c3ccccc23)[C@@H](O)c2ccc(F)cc2)c1` (racemic) [Example 324, 4-fluoro-N-[(1RS,2SR)-2-(4-fluorophenyl)-2-hydroxy-1-(3-isopropylbenzyl)ethyl]naphthalene-1-carboxamide], the melting point was 159 to 160 °C.
`CC(C)(C)OC(=O)N[C@H](Cc1cccc(OC(F)(F)C(F)F)c1)[C@@H](O)c1ccc(C=O)cc1` (racemic) [Example 325, tert-butyl N-[(1RS,2SR)-2-(4-formylphenyl)-2-hydroxy-1-[3-(1,1,2,2-tetrafluoroethoxy)benzyl]ethyl]carbamate] gave a melting point of 140 to 142 °C.
With `O=Cc1ccc([C@H](O)[C@@H](Cc2cccc(OC(F)(F)C(F)F)c2)NC(=O)c2cccc3c2C=CCCC3)cc1` (racemic) [Example 326, N-[(1RS,2SR)-2-(4-formylphenyl)-2-hydroxy-1-[3-(1,1,2,2-tetrafluoroethoxy)benzyl]ethyl]-6,7-dihydro-5H-benzo[a]cycloheptene-1-carboxamide] the melting point was 164 to 166 °C.
For `N#CC(c1ccc([C@H](O)[C@@H](Cc2cccc(OC(F)(F)C(F)F)c2)NC(=O)c2cccc3c2C=CCCC3)cc1)N1CCCCC1` (mixture of isomers) [Example 327, N-[(1RS,2SR)-2-[4-[cyano(piperidino)methyl]phenyl]-2-hydroxy-1-[3-(1,1,2,2-tetrafluoroethoxy)benzyl]ethyl]-6,7-dihydro-5H-benzo[a]cycloheptene-1-carboxamide], the melting point was 152 to 154 °C.
For `O=C(N[C@H](Cc1cccc(OC(F)(F)C(F)F)c1)[C@@H](O)c1ccc(CO)cc1)c1cccc2c1C=CCCC2` (racemic) [Example 327, N-[(1RS,2SR)-2-hydroxy-2-[4-(hydroxymethyl)phenyl]-1-[3-(1,1,2,2-tetrafluoroethoxy)benzyl]ethyl]-6,7-dihydro-5H-benzo[a]cycloheptene-1-carboxamide], the melting point was 151 to 152 °C.
`O=C(N[C@H](Cc1cccc(OC(F)(F)C(F)F)c1)[C@@H](O)c1ccc(CN2CCCCC2)cc1)c1cccc2c1C=CCCC2` (racemic) [Example 327, N-[(1RS,2SR)-2-hydroxy-2-[4-(piperidinomethyl)phenyl]-1-[3-(1,1,2,2-tetrafluoroethoxy)benzyl]ethyl]-6,7-dihydro-5H-benzo[a]cycloheptene-1-carboxamide] showed a melting point of 104 to 106 °C.
In the case of `CC(C)(C)OC(=O)N[C@H](Cc1cccc(OC(F)(F)C(F)F)c1)[C@@H](O)c1ccc(Cl)nc1` (racemic) [Example 328, tert-butyl N-[(1RS,2SR)-2-(6-chloropyridin-3-yl)-2-hydroxy-1-[3-(1,1,2,2-tetrafluoroethoxy)benzyl]ethyl]carbamate], the melting point is reported as 119 to 121 °C.
With `O=C(N[C@H](Cc1cccc(OC(F)(F)C(F)F)c1)[C@@H](O)c1ccc(Cl)nc1)c1cccc2c1C=CCCC2` (racemic) [Example 329, N-[(1RS,2SR)-2-(6-chloropyridin-3-yl)-2-hydroxy-1-[3-(1,1,2,2-tetrafluoroethoxy)benzyl]ethyl]-6,7-dihydro-5H-benzo[a]cycloheptene-1-carboxamide] the melting point was 170 to 172 °C.
`O=C(N[C@H](Cc1cccc(OC(F)(F)C(F)F)c1)[C@@H](O)c1ccc(-c2ccccc2)nc1)c1cccc2c1C=CCCC2` (racemic) [Example 330, N-[(1RS,2SR)-2-hydroxy-2-(6-phenylpyridin-3-yl)-1-[3-(1,1,2,2-tetrafluoroethoxy)benzyl]ethyl]-6,7-dihydro-5H-benzo[a]cycloheptene-1-carboxamide] showed a melting point of 174 to 175 °C.
`O=C(N[C@H](Cc1cccc(OC(F)(F)C(F)F)c1)[C@@H](O)c1ccc(Cl)nc1)c1ccc(F)c2ccccc12` (racemic) [Example 331, N-[(1RS,2SR)-2-(6-chloropyridin-3-yl)-2-hydroxy-1-[3-(1,1,2,2-tetrafluoroethoxy)benzyl]ethyl]-4-fluoronaphthalene-1-carboxamide] showed a melting point of 185 to 187 °C.
With `O=C(N[C@H](Cc1cccc(OC(F)(F)C(F)F)c1)[C@@H](O)c1ccc(F)cc1)c1cccc2c(Cl)cccc12` (racemic) [Example 333, 5-chloro-N-[(1RS,2SR)-2-(4-fluorophenyl)-2-hydroxy-1-[3-(1,1,2,2-tetrafluoroethoxy)benzyl]ethyl]naphthalene-1-carboxamide] the melting point was 174 to 175 °C.
With `O=C(N[C@H](Cc1cccc(OC(F)(F)C(F)F)c1)[C@@H](O)c1ccc(F)cc1)c1cccc2c(F)cccc12` (racemic) [Example 334, 5-fluoro-N-[(1RS,2SR)-2-(4-fluorophenyl)-2-hydroxy-1-[3-(1,1,2,2-tetrafluoroethoxy)benzyl]ethyl]naphthalene-1-carboxamide] the melting point was 178 to 180 °C.
